Measurements as given in ChEMBL document CHEMBL3098118, “Access to a new class of biologically active quinoline based 1,2,4-triazoles” (2014).
In brackets after ≈: the same amount, converted by molar mass.

How the values were obtained:
Type in all cases: functional
Bacillus cereus = assay: Antibacterial activity against Bacillus cereus MTCC 619 by agar streak dilution method
Pseudomonas aeruginosa = assay: Antibacterial activity against Pseudomonas aeruginosa MTCC 741 by agar streak dilution method
Escherichia coli = assay: Antibacterial activity against Escherichia coli MTCC 739 by agar streak dilution method
Staphylococcus aureus = assay: Antibacterial activity against Staphylococcus aureus MTCC 96 by agar streak dilution method
Klebsiella pneumoniae = assay: Antibacterial activity against Klebsiella pneumoniae MTCC 109 by agar streak dilution method
Candida albicans = assay: Antifungal activity against Candida albicans MTCC 183 by agar streak dilution method
Aspergillus niger = assay: Antifungal activity against Aspergillus niger MTCC 282 by agar streak dilution method

Row | Compound | MIC (Bacillus cereus) [µg/mL] | MIC (Pseudomonas aeruginosa) [µg/mL] | MIC (Escherichia coli) [µg/mL] | MIC (Staphylococcus aureus) [µg/mL] | MIC (Klebsiella pneumoniae) [µg/mL] | MIC (Candida albicans) [µg/mL] | MIC (Aspergillus niger) [µg/mL]
1 | GENTAMICIN | 6.25 | 12.5 | 12.5 | 6.25 | 25 |  | 
2 | COc1ccc2nc(NC(=O)CSc3nnc(-c4ccc5ncccc5c4)n3-c3cccc4ccccc34)sc2c1 | 100 (≈ 174 µM) | 50 (≈ 87 µM) | 62.5 (≈ 109 µM) | 100 (≈ 174 µM) | 62.5 (≈ 109 µM) | 25 (≈ 43.5 µM) | 6.25 (≈ 10.9 µM)
3 | CC1(C)S[C@@H]2[C@H](NC(=O)[C@H](N)c3ccccc3)C(=O)N2[C@H]1C(=O)O [AMPICILLIN] | 12.5 (≈ 35.8 µM) | 25 (≈ 71.5 µM) | 6.25 (≈ 17.9 µM) | 12.5 (≈ 35.8 µM) | 25 (≈ 71.5 µM) |  | 
4 | CCOc1ccc2nc(NC(=O)CSc3nnc(-c4ccc5ncccc5c4)n3-c3cccc4ccccc34)sc2c1 | 100 (≈ 170 µM) | 25 (≈ 42.5 µM) | 100 (≈ 170 µM) | 200 (≈ 340 µM) | 100 (≈ 170 µM) | 6.25 (≈ 10.6 µM) | 12.5 (≈ 21.2 µM)
5 | O=C(CSc1nnc(-c2ccc3ncccc3c2)n1-c1cccc2ccccc12)Nc1nc2ccccc2s1 | 250 (≈ 459 µM) | 500 (≈ 918 µM) | 250 (≈ 459 µM) | 500 (≈ 918 µM) | 500 (≈ 918 µM) | 100 (≈ 184 µM) | 200 (≈ 367 µM)
6 | O=C(CSc1nnc(-c2ccc3ncccc3c2)n1-c1cccc2ccccc12)Nc1nc2ccc(Br)cc2s1 | 25 (≈ 40.1 µM) | 100 (≈ 160 µM) | 62.5 (≈ 100 µM) | 50 (≈ 80.2 µM) | 100 (≈ 160 µM) | 25 (≈ 40.1 µM) | 50 (≈ 80.2 µM)
7 | Cc1ccc2nc(NC(=O)CSc3nnc(-c4ccc5ncccc5c4)n3-c3cccc4ccccc34)sc2c1 | 250 (≈ 447 µM) | 100 (≈ 179 µM) | 200 (≈ 358 µM) | > 500 | 500 (≈ 895 µM) | 200 (≈ 358 µM) | 50 (≈ 89.5 µM)
8 | N#Cc1ccc2nc(NC(=O)CSc3nnc(-c4ccc5ncccc5c4)n3-c3cccc4ccccc34)sc2c1 | 200 (≈ 351 µM) | 100 (≈ 176 µM) | 50 (≈ 87.8 µM) | 500 (≈ 878 µM) | 50 (≈ 87.8 µM) | 6.25 (≈ 11 µM) | 100 (≈ 176 µM)
9 | O=C(CSc1nnc(-c2ccc3ncccc3c2)n1-c1cccc2ccccc12)Nc1nc2ccc(Cl)cc2s1 | 100 (≈ 173 µM) | 200 (≈ 345 µM) | 100 (≈ 173 µM) | 200 (≈ 345 µM) | 62.5 (≈ 108 µM) | 50 (≈ 86.3 µM) | 100 (≈ 173 µM)
10 | O=C(CSc1nnc(-c2ccc3ncccc3c2)n1-c1cccc2ccccc12)Nc1nc2ccc([N+](=O)[O-])cc2s1 | 62.5 (≈ 106 µM) | 50 (≈ 84.8 µM) | 50 (≈ 84.8 µM) | 200 (≈ 339 µM) | 50 (≈ 84.8 µM) | 50 (≈ 84.8 µM) | 6.25 (≈ 10.6 µM)
11 | O=C(CSc1nnc(-c2ccc3ncccc3c2)n1-c1cccc2ccccc12)Nc1nc2ccc(F)cc2s1 | 50 (≈ 88.9 µM) | 100 (≈ 178 µM) | 100 (≈ 178 µM) | 25 (≈ 44.4 µM) | 62.5 (≈ 111 µM) | 50 (≈ 88.9 µM) | 25 (≈ 44.4 µM)
12 | O=C(CSc1nnc(-c2ccc3ncccc3c2)n1-c1cccc2ccccc12)Nc1nc2ccc(I)cc2s1 | 200 (≈ 298 µM) | 250 (≈ 373 µM) | 250 (≈ 373 µM) | 250 (≈ 373 µM) | 100 (≈ 149 µM) | 62.5 (≈ 93.2 µM) | 62.5 (≈ 93.2 µM)
13 | CC(=O)Nc1ccc2nc(NC(=O)CSc3nnc(-c4ccc5ncccc5c4)n3-c3cccc4ccccc34)sc2c1 | 250 (≈ 415 µM) | 62.5 (≈ 104 µM) | 200 (≈ 332 µM) | 500 (≈ 831 µM) | 250 (≈ 415 µM) | 100 (≈ 166 µM) | 62.5 (≈ 104 µM)
14 | OC(Cn1cncn1)(Cn1cncn1)c1ccc(F)cc1F [FLUCONAZOLE] |  |  |  |  |  | 12.5 (≈ 40.8 µM) | 6.25 (≈ 20.4 µM)
